Data reported in patent publication US20090181904A1, “METHOD FOR REGULATING NUTRIENT ABSORPTION WITH GINSENOSIDES” (priority 2005, published 2009).

Columns and labels:
Type in all cases: cell-based, human
Caco2 cells [1] = assay: Folate uptake assay (3H-folate uptake in Caco2 cells); conditions: compound 0.1 μM
Method: The Caco2 cells were subjected to folate uptake test in a manner similar to that described in the glucose uptake assay in Example 1 above. In the folate uptake test, the Caco2 cells were pretreated with the culture medium containing 5% FBS and purified ginsenosides at a concentration of […] for 2 days before the cells were cultured in a folate uptake buffer (Hank's balanced salt solution, supplemented with 0.14 g/L CaCl2, 0.1 g/L MgCl2, and 0.1 g/L MgSO4, pH 6.0) for 1 hour. The buffer was then aspirated, and uptake was initiated by adding 0.2 mL of fresh folate uptake buffer containing 2 μCi/mL radioactive folate (3,5,7,9-^3H-folic acid, 25 mCi/mmol, ARC) and cold, unlabeled folate giving a final folate concentration of 5 μM. Folate uptake was terminated by removing the uptake buffer at designated time intervals. The cells were then washed three times with ice-cold PBS and lysed by adding 0.2 mL of 0.2 N NaOH, followed by incubating at 65° C. for 20 min. Intracellular uptake of ^3H-folate was determined by transferring 20 μL of the cell lysate to the filter-bottomed UniFilter plates (Perkin-Elmer) and counting as described previously in Example 1. The amount of folate accumulated in the cells was calculated and normalized to protein concentration, and uptake rate was expressed as picomoles of folate per minutes per milligram of cell protein (pmol/min/mg). Protein concentration was determined by a standard Bicinchoninic acid (BCA) protein assay as described above.

Caco2 cells [2] = assay: Cell viability assay (CCK-8); conditions: 10 μM and 50 μM, culture medium containing 1% FBS, 5 days
Method: In order to investigate whether the purified ginsenosides were toxic to the Caco2 cells, a cell viability assay was carried out using culture medium supplemented with 1% and 10% FBS, respectively. The cells were seeded at a concentration of 5000 cells/well in a 96-well plate. To eliminate the boundary effect of the cell growth, the cells were only seeded in 60 wells of the middle area of the plate, whereas 36 wells at the surrounding area of the plate were filled only with 100 μL of PBS. Once the cells were attached to the plate, the cells were incubated in medium containing the purified ginsenosides at various concentrations (0, 0.1, 1, 10 and 50 μM). […]
The cell viability was determined by a Cell Counting Kit-8 (CCK-8, Dojindo Laboratories, Kumamoto, Japan) assay that was based on redox reaction of NADH in the living cells with cell proliferation reagent WST-8. […] Therefore, a greater light absorbance detected by ELISA reader at wavelength of 450 nm indicated presence of a larger number of the living cells.
The CCK-8 assay was carried out by adding 10 μL of the CCK-8 reagent in each well of a 96-format plate. The plate was then covered with aluminum foil and further incubated for two hours before measuring for absorbance at wavelengths of 450 nm using an ELISA reader.

Caco-2 cell monolayer = assay: Arginine absorption assay (transport across Caco-2 monolayer, 3H-arginine); conditions: for Transport rate (arginine): 10 mM L-arginine
Method: In measuring transport of arginine across the Caco-2 cell monolayer, both sides of the transwells were washed with arginine incubation buffer consisting of: 137 mM NaCl, 10 mM Hepes, 0.3 mM NaH2PO4, 0.3 mM K2HPO4, 5.4 mM KCl, 2.8 mM CaCl2, 1 mM MgSO4, 10 mM glucose, adjusted to pH 7.4. Then, the cell layer was pre-incubated in the incubation buffer at 37° C. for 1 h. The volumes of incubation buffer were 0.2 mL and 0.9 mL in the apical and basolateral chambers, respectively. The cells were replaced with fresh incubation medium in both chambers prior to the transport experiment. The transport experiment was initiated by replacing the incubation solution on the apical side with solution containing 10 mM of L-arginine in which 0.125 μCi/mL of L-[^3H]-arginine was included. At designated time intervals, 10 μL-solution samples were removed from the basolateral side and radioactivity of each sample was counted using a microplate liquid scintillation counter (TopCount, Packard NXT). During the experiment, when a 10 μL-solution sample was removed from the basolateral side every time, 10 μL buffer was supplemented to keep the volume constant. The uptake of [^3H]-mannitol was used to correct for nonspecific transport of molecules across the monolayer membrane. Results were expressed as the nanomoles of arginine transport across the Caco-2 cell monolayers with respect to time in minutes (nmol/min).

Structure (SMILES): CC(C)=CCC[C@](C)(O[C@@H]1O[C@H](CO)[C@@H](O)[C@H](O)[C@H]1O)[C@H]1CC[C@]2(C)[C@@H]1[C@H](O)C[C@@H]1[C@@]3(C)CC[C@H](O)C(C)(C)[C@@H]3[C@@H](O[C@@H]3O[C@H](CO)[C@@H](O)[C@H](O)[C@H]3O)C[C@]12C [Rg1, ginsenoside Rg1]
- Percentage (folate uptake, control = 100) (Caco2 cells [1]): 62.64%
- folate uptake versus non-treated control (in words, FIG. 5) (Caco2 cells [1]): decreased
- Transport rate (folate uptake) (Caco2 cells [1]; 2 days pretreatment, 5 μM folate, pH 6.0): 1.0780 ± 0.1534 pmol/mg/min
- cytotoxicity to Caco2 cells (cell viability) (Caco2 cells [2]): exhibited cytotoxicity
- Percentage (arginine transport, control = 100) (Caco-2 cell monolayer; compound 0.01 μM): 126.89%
- Transport rate (arginine) (Caco-2 cell monolayer; compound 0.01 μM): 13.5583 ± 1.1940 nmol/min
- Percentage (arginine transport, control = 100) (Caco-2 cell monolayer; compound 0.1 μM): 210.91%
- Transport rate (arginine) (Caco-2 cell monolayer; compound 0.1 μM): 22.5370 ± 0.8912 nmol/min
- Percentage (arginine transport, control = 100) (Caco-2 cell monolayer; compound 1 μM): 171.51%
- Transport rate (arginine) (Caco-2 cell monolayer; compound 1 μM): 18.3265 ± 0.8965 nmol/min
